Test results: US20230099027A1 (priority 2020, published 2023)

Test system: H1N1 Neth09
Type: cell-based, influenza A virus

For PEG8, which virucidal result is on record?
The virucidal result was “did not give virucidal results”.
